Experimental data as given in PMC3846293 (Bioorganic & medicinal chemistry letters, 2013).
Marks after values point to notes of the source that are not given here.

What was measured:
rat mGlu5 = rat mGlu5 (Rattus norvegicus, UniProt P31424); assay: Calcium mobilization mGlu5 assay; format: cell-based; settings: for mGlu5 pIC50 (± SEM) / IC50: HEK293A cells expressing rat mGlu5, EC80 glutamate; for mGlu5 pIC50 (± SEM): average of n ≥ 3; for IC50: read-out: mGlu5 IC50
[1] = prior PK studies in rats; cited from earlier work
marble burying [2] = assay: Mouse marble burying model of anxiety; settings: IP dosing, 15 minute pretreatment; all doses greater than or equal to 3 mg/kg; n = 8 per dose; P < 0.001 vs. vehicle
[3] = test system: panel of 68 clinically relevant GPCRs, ion channels, kinases, and transporters; assay: Radioligand binding assay panel; settings: 10 μM compound; significant = more than 50% inhibition of radioligand binding
marble burying [4] = settings: mice; ref 7a,d; cited from earlier work

Chain of rat mGlu5 (P31424 21-1203): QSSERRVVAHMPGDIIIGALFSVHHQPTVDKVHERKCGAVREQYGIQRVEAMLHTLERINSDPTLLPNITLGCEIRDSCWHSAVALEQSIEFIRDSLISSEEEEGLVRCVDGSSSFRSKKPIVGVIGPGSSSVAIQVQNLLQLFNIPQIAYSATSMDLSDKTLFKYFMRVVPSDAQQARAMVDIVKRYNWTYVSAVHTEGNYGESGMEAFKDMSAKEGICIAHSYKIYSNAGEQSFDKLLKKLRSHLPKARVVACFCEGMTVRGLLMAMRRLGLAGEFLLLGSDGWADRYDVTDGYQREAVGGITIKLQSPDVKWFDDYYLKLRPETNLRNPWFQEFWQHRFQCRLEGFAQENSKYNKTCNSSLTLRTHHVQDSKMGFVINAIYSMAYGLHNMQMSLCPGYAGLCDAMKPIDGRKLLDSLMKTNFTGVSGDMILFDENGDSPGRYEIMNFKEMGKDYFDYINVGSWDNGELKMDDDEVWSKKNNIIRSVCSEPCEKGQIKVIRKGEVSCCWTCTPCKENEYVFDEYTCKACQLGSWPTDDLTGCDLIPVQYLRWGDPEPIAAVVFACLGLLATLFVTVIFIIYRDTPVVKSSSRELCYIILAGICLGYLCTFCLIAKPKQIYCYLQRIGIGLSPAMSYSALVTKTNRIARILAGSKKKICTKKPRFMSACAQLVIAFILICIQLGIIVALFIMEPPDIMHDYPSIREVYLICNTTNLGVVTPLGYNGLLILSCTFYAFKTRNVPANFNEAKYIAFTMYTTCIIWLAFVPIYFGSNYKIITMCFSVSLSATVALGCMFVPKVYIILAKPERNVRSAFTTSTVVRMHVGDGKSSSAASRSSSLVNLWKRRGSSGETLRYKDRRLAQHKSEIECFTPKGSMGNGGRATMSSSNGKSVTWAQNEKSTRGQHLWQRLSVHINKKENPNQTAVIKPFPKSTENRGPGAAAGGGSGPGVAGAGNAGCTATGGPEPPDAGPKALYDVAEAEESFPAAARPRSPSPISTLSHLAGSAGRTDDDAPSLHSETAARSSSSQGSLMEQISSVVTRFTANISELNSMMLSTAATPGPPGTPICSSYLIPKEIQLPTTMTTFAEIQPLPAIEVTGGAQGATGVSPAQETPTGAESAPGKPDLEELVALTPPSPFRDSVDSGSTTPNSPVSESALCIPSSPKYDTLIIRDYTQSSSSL

O=C(Nc1nc(C(F)(F)F)cs1)c1cccc(Oc2cccnc2)c1 [Compound 20]
mGlu5 pIC50 (± SEM) (rat mGlu5): < 4.5 | IC50 (rat mGlu5): > 30 µM

Cc1cccc(NC(=O)c2cc(Cl)cc(Oc3cnc(C)nc3)c2)n1 [Compound 76]
fold decrease in potency vs. 66 (rat mGlu5; mGlu5 potency vs 66): 5 fold

O=C(Nc1ccncn1)c1cccc(Oc2cccnc2)c1 [Compound 11]
mGlu5 pIC50 (± SEM) (rat mGlu5): < 5.0 ^c | IC50 (rat mGlu5): > 10 µM

CCCc1csc(NC(=O)c2cc(Cl)cc(Oc3cncnc3)c2)n1 [Compound 38]
fold loss of potency compared to 25 (rat mGlu5; mGlu5 potency vs 25): 7 fold

O=C(Nc1cccc(Cl)c1)c1cccc(Oc2cccnc2)c1 [Compound 3]
fold less potent than 2 (rat mGlu5; mGlu5 potency vs 2): more than 20 fold

Cc1csc(NC(=O)c2cc(F)cc(Oc3cncnc3)c2)n1 [Compound 24]
clearance in rats [1]: moderate to high clearance | inhibition of marble burying (marble burying [2]): Statistically significant inhibition | responses in radioligand binding panel of 68 targets [3]: no significant responses

CCCc1csc(NC(=O)c2cc(F)cc(Oc3cncnc3)c2)n1 [Compound 33]
fold loss of potency compared to 24 (rat mGlu5; mGlu5 potency vs 24): 10 fold

CN1CC(=O)NC1=NC(=O)Nc1cccc(Cl)c1 [fenobam]
efficacy in marble burying model (marble burying [4]): effective

Cc1ncc(Oc2cc(Cl)cc(C(=O)Nc3ccc(F)cn3)c2)cn1 [Compound 75]
fold loss of potency vs. 28 (rat mGlu5; mGlu5 potency vs 28): > 100 fold

Cc1cccc(C#Cc2ccccc2)n1 [MPEP]
efficacy in marble burying model (marble burying [4]): effective

Cc1nsc(NC(=O)c2cccc(Oc3cccnc3)c2)n1 [Compound 19]
mGlu5 pIC50 (± SEM) (rat mGlu5): < 4.5 | IC50 (rat mGlu5): > 30 µM
